From article PMC8989888, “Development of optimized drug-like small molecule inhibitors of the SARS-CoV-2 3CL protease for treatment of COVID-19” (Nature Communications, 2022)
Several values for one entry are separate records, joined by “and”; a condition that tells them apart may be missing. Equal entries are not always repeated.

Test system: SARS-CoV-2
Test: microbe, parasite or virus in culture
Assay type: cell-based

Row | Compound | inhibition of SARS-CoV-2 (Figure S17A dose-response, replicate values)
1 | CC(C)C[C@H](NC(=O)OCc1cccc(Cl)c1)C(=O)N[C@@H](C[C@@H]1CCNC1=O)C(O)S(=O)(=O)O (stereo partly shown) [EB46] | 0 (10×) and 100 (6×) and 37.5 (2×) and 50 and 12.5 (2×)
2 | O=C(N[C@@H](CC1CCCCC1)C(=O)N[C@@H](C[C@@H]1CCNC1=O)C(O)S(=O)(=O)O)OCc1cccc(Cl)c1 (stereo partly shown) [EB48] | 0 (11×) and 68.75 and 75 and 93.75 and 25 (3×) and 50 and 37.5 and 12.5 (2×)
3 | CC(C)C[C@H](NC(=O)OCc1ccccc1Cl)C(=O)N[C@@H](C[C@@H]1CCNC1=O)C(O)S(=O)(=O)O (stereo partly shown) [EB54] | 0 (6×) and 100 (6×) and 50 (3×) and 12.5 (4×) and 25 (2×)
4 | CC(C)C[C@H](NC(=O)OCc1cccc2ccccc12)C(=O)N[C@@H](C[C@@H]1CCNC1=O)C(O)S(=O)(=O)O (stereo partly shown) [EB55] | 0 (10×) and 100 (4×) and 93.75 (2×) and 12.5 (5×)
5 | CC(C)C[C@H](NC(=O)OCc1ccc2ccccc2c1)C(=O)N[C@@H](C[C@@H]1CCNC1=O)C(O)S(=O)(=O)O (stereo partly shown) [EB56] | 0 (5×) and 12.5 (8×) and 93.75 (3×) and 87.5 (3×) and 50 and 25
6 | CC(C)CC(NC(=O)OCc1ccccc1)C(=O)NC(CC1CCNC1=O)C(O)S(=O)(=O)O (stereo not shown) [GC376, reference compound] | 0 (14×) and 87.5 and 93.75 and 100 and 37.5 and 62.5 and 68.75 and 12.5
7 | O=C(N[C@@H](CC1CCCCC1)C(=O)N[C@@H](C[C@@H]1CCNC1=O)C(O)S(=O)(=O)O)OCc1ccccc1 (stereo partly shown) [SL-4-241] | 0 (14×) and 100 (2×) and 81.25 and 25 (2×) and 12.5 (2×)
